Measurements from patent publication US11207320B2, “Compositions and methods for cancer expressing PDE3A or SLFN12” (The Broad Institute, Inc., priority 2015, dated 2021).
Values belong to the compound of their own block, whether it stands above or below them.

Key:
HeLa cells [1] = test: Compound sensitivity testing in cell lines (48 h viability); format: cell-based; settings: HeLa
Experimental: 1500 NCI-H1734 or 1000 A549 cells were plated in a 384-well plate in 40 μl of RPMI supplemented with 10% Fetal Bovine Serum and 1% Pen/Strep. 24 hours after plating, a compound-library of 1924 small molecules was added at a concentration of 10 μM. Staurosporine was used a positive control for cytotoxicity at a concentration of 10 μM, and DMSO was used a negative control at a concentration of 1%. All compounds were incubated for 48 hours with indicated small molecules. After 48 hours, 384-well plates were removed from the incubator and allowed to cool to room temperature for 20 minutes. Cell viability was assessed by adding 40 μl of a 25% CELLTITERGLO® (Promega) in PBS with a THERMO COMBI™ or multichannel-pipette and incubated for 10 minutes. The luminescence signal was read using a Perkin-Elmer EnVision. Viability percentage was calculated by normalizing to DMSO controls.
1000 HeLa (DMEM), 1000 A549 (RPMI), 500 MCF-7 (DMEM), 4000 PC3 (F12-K), 1000 NCI-H2122 (RPMI) or 1500 NCI-H1563 (RPMI) cells were plated in a 384-well plate in 40 μl of corresponding growth media supplemented with 10% Fetal Bovine Serum. 24 hours after plating, indicated compounds were added at indicated concentrations and incubated for 48 hours. Cell viability was assessed as described in Compound library screening in NCI-H1734 and A549 cell lines.

PDE3A = PDE3A (Homo sapiens, UniProt Q14432); test: Linker-affinity purification of molecular target of DNMDP and immunoblotting; format: binding; design: Immunoprecipitation of endogenous PDE3A in HeLa cells; endogenous in cells; host or cells: HeLa; settings: HeLa cell lysate, competitor 10 μM, immunoblot for PDE3A
Sequence of PDE3A (Q14432 whole entry): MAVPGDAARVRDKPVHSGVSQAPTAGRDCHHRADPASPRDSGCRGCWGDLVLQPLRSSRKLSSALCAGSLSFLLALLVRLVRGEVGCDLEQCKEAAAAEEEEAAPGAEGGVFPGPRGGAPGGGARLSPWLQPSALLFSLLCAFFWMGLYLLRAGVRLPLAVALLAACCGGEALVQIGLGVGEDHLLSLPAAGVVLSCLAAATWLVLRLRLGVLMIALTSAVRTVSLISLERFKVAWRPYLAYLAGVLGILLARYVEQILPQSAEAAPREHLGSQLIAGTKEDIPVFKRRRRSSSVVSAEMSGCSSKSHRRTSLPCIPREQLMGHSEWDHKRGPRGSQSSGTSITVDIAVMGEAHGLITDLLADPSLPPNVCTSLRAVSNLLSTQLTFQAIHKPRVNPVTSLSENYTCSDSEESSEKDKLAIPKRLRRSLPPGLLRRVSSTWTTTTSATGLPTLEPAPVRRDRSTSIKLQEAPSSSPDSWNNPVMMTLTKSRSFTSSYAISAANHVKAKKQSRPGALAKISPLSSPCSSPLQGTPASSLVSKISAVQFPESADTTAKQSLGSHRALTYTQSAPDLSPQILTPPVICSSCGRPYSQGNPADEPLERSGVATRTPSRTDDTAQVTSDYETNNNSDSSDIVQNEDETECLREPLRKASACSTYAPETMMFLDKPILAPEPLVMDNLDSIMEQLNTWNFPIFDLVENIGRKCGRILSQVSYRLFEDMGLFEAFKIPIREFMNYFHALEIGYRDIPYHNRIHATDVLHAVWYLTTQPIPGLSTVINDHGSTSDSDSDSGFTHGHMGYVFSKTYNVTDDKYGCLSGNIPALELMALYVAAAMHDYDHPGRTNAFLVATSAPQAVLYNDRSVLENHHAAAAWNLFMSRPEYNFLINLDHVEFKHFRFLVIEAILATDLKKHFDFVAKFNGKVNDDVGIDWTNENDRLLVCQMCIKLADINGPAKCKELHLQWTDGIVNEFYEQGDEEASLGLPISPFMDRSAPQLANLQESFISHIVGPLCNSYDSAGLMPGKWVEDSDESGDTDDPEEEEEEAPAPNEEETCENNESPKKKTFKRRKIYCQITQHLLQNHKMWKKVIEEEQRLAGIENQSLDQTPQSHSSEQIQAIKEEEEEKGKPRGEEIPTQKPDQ
Experimental: To identify the molecular target of DNMDP, an affinity purification was performed using an (R)-des-nitro-DNMDP solid-phase tethered linker analogue (FIG. 10A) incubated with HeLa cell lysate. […] It was competed for the molecular target by adding either an excess of trequinsin or separate enantiomers of DNMDP, where only the (R)-enantiomer was cytotoxic. […] Binding of PDE3A to the linker analogue was blocked by both trequinsin and (R)-DNMDP, but not by the non-cytotoxic enantiomer (S)-[…]. 9C). Thus both trequinsin and (R)-DNMDP prevented the binding of PDE3A to the tethered DNMDP analogue, and it was concluded that both molecules bind PDE3A directly. HeLa cells were washed with ice-cold PBS before lysed with NP-40 lysis buffer (150 mM NaCl, 10% glycerol, 50 mM Tris-Cl pH 8.0, 50 mM MgCl2, 1% NP-40) supplemented with EDTA-free protease inhibitors (Roche) and phosphatase inhibitor mixtures I and II (Calbiochem). […] Samples were washed three times with lysis buffer containing corresponding compound concentrations of 10 μM. Proteins bound to Affi-Gel 102 resin were reduced, denatured, and separated using Tris-Glycine gels (Novex) and transferred to nitrocellulose membranes using the iBlot transfer system (Novex). Membranes were incubated overnight at 4° C. with primary antibodies against PDE3A (1:1000, Bethyl). […]

HeLa cells [2] = test: DNMDP cytotoxicity after targeting PDE3A locus using CRISPR; format: cell-based; settings: HeLa infected with Cas9 and sgRNAs against PDE3A
Experimental: FIG. 11A is a Western blot. HeLa cells were infected with Cas9 and indicated guide RNAs (sgRNA) against PDE3A. Western blots were probed for PDE3A at indicated time points. FIG. 11B is a bar graph showing percent rescue of HeLa cells that were infected with indicated sgRNAs for two weeks and treated with 1 μM of 6-(4-(diethylamino)-3-nitrophenyl)-5-methyl-4,5-dihydropyridazin-3(2H)-one (DNMDP) for 48 hours. Percent rescue was normalized to the Cas9-only control. FIG. 11C is a plot showing viability of cells infected with indicated sgRNAs and treated with various concentrations of 6-(4-(diethylamino)-3-nitrophenyl)-5-methyl-4,5-dihydropyridazin-3(2H)-one (DNMDP).
Based on the observations that DNMDP-sensitive cells expressed high levels of PDE3A, and that DNMDP competed with non-cytotoxic inhibitors for PDE3A binding, it was hypothesized that DNMDP mediated its cytotoxic phenotype through the interaction with PDE3A and that PDE3A abundance was a direct cellular determinant of DNMDP sensitivity. To validate this hypothesis, the effect of reducing levels of PDE3A on the response to DNMDP was tested. […] In an independent approach using an siRNA smart-pool containing four different siRNAs targeting PDE3A, PDE3A expression was reduced in HeLa cell line with a maximum efficiency of 70% between 24 and 72 hours after transfection. […]

HeLa cells [3] = format: cell-based; settings: 48 hours; for rescue of DNMDP cytotoxicity / competition with DNMDP: dose-response up to 10 μM, co-treated with DNMDP; for rescue of cell death induced by DNMDP, rank in bioactives screen: 20 μM compound + 30 nM DNMDP, 1600 compounds
Experimental: HeLa cells were co-treated with 30 nM DNMDP (the EC70 concentration) and 20 μM of each bioactive compound. Cell viability after 48-hour treatment was assessed by ATP consumption as described earlier.
1000 HeLa cells were plated in a 384-well plate in 40 μl of DMEM supplemented with 10% Fetal Bovine Serum and 1% Pen/Strep. 24 hours after plating, a compound-library of 1600 bioactive molecules (Pharmacon) was added at a concentration of 20 μM. In parallel to bioactive compound incubation, DNMDP was added to a final concentration of 30 nM and incubated for 48 hours. Cell viability was assessed as described in Compound library screening in NCI-H1734 and A549 cell lines.

PDE3A and SLFN12 = target: T1, PDE3A and SLFN12 (Homo sapiens, UniProt Q14432); test: Validation of DNMDP-induced PDE3A protein interactions using immunoprecipitation and immunoblotting; format: cell-based; settings: FIG. 20, affinity reagents, immunoblot
T1 construct: Endogenous PDE3A was immunoprecipitated; host or cells: HeLa
T1 sequence (Q14432 whole entry): as above
T1 sequence (Q8IYM2 whole entry partner): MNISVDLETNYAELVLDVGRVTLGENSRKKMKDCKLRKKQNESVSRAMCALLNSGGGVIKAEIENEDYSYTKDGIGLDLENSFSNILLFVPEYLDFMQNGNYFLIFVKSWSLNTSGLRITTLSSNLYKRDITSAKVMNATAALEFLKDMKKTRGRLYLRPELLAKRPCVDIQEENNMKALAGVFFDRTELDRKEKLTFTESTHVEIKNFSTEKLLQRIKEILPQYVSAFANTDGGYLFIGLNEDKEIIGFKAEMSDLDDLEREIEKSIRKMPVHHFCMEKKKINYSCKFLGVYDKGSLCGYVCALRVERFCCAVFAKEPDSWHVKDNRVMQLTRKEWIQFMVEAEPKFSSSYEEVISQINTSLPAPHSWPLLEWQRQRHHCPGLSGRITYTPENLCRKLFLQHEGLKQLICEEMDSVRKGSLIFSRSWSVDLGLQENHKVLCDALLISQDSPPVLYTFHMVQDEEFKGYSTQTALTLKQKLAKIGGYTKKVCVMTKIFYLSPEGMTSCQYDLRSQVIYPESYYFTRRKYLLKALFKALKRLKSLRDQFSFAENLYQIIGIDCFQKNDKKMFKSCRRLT
Experimental: FIG. 19 is an immunoblot showing that DNMDP induces interaction between PDE3A and SIRT7 and SLFN12 in HeLa cells. HeLa cells were transfected with indicated plasmids and treated with indicated compounds with a final concentration of 10 μM for four hours. Endogenous PDE3A was immunoprecipitated and immunoblotted for V5 to identify novel interaction with SIRT7 and SLFN12 (upper two panels). Immunoprecipitate input was immunoblotted for PDE3A and V5 (lower two panels). V5-SLFN12 was undetectable in whole cell lysate.
FIG. 20 is an immunoblot showing confirmation of mass spectrometric results herein using affinity reagents.
HeLa cells were transfected with ORF overexpression constructs expressing V5-tagged SIRT7, V5-tagged SLFN12, or V5-tagged GFP. ORF expression constructs were obtained from the TRC (clone IDs: TRCN0000468231, TRCN0000476272, ccsbBroad304_99997). At 72 hours post transfection, cells were treated with 10 μM DNMDP or trequinsin for 4 hours followed by lysis using the ModRipa lysis buffer and immunoprecipitation of PDE3A. For each condition, 2 mg total protein lysate was incubated with 1 μg of anti-PDE3A antibody at 4° C. overnight, after which 7.5 μl each of Protein A- and Protein G-Dynabeads (Life Technologies 10001D and 10003D) were added and incubated for another 1 hour. Beads were washed and bound proteins were eluted with 30 μl of LDS PAGE gel loading buffer. Input (˜60 μg total protein lysate) and IP products were resolved on 4-12% Tris-Glycine PAGE gels and immunoblotted with an anti-V5 antibody (Life Technologies R96205, 1:5000), the Bethyl anti-PDE3A antibody (1:1000), and secondary antibodies from LiCOR Biosciences (Cat.#926-32210 and 926068021, each at 1:10,000). Blots were washed and imaged using a LiCOR Odyssey infrared imager.

PDE3A(677-1141) = target: T2, PDE3A(677-1141) (Homo sapiens, UniProt Q14432); test: Differential scanning fluorimetry (DSF) binding; settings: 5 μM protein, 100 μM compound
T2 construct: purified PDE3A catalytic domain, PDE3A(677-1141)
T2 sequence (Q14432 677-1141): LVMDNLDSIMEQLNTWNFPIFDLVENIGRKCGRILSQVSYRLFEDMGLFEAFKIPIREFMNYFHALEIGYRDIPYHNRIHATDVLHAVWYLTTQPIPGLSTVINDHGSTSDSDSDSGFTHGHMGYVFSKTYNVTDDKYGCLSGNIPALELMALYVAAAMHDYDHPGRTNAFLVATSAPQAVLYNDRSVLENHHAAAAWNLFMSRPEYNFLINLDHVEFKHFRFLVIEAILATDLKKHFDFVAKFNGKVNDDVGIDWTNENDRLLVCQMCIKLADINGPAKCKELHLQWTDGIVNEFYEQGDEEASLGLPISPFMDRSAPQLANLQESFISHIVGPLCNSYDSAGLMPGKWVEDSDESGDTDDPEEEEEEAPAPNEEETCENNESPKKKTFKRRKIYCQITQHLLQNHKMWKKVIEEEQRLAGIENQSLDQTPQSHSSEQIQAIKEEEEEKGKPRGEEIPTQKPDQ
Experimental: Binding buffer: 20 mM Hepes pH 7.4, 100 μM TCEP, 1 mM MgCl2, 150 mM NaCl.

fold lower EC50 compared to the (S)-enantiomer (HeLa cells [1]): 500 fold | blocking of binding of PDE3A to the tethered linker analogue (PDE3A): blocked
Compound: CCN(CC)c1ccc(C2=NNC(=O)C[C@H]2C)cc1[N+](=O)[O-] [(R)-DNMDP, (R)-6-(4-(diethylamino)-3-nitrophenyl)-5-methyl-4,5-dihydropyridazin-3(2H)-one]
effect on HeLa cell viability / cytotoxicity (HeLa cells [1]): cytotoxic

Compound: CCN(CC)c1ccc(C2=NNC(=O)C[C@@H]2C)cc1[N+](=O)[O-] [(S)-DNMDP]
effect on HeLa cell viability / cytotoxicity (HeLa cells [1]): non-cytotoxic

Compound: C[C@@H]1CC(=O)NN=C1c1ccc(N2CCOCC2)cc1 [Compound 3]
rescue of toxicity by PDE3A sgRNA2 and sgRNA3 (HeLa cells [2]): significant rescue of toxicity

Compound: CCN(CCOCCOCCNC(=O)OC(C)(C)C)c1ccc(C2=NNC(=O)C[C@H]2C)cc1 [DNMDP-2L, tert-butyl (R)-(2-(2-(2-(ethyl(4-(4-methyl-6-oxo-1,4,5,6-tetrahydropyridazin-3-yl)phenyl)amino)ethoxy)ethoxy)ethyl)carbamate]
rescue of DNMDP cytotoxicity / competition with DNMDP (HeLa cells [3]): same DNMDP cytotoxicity rescue phenotype as non-cytotoxic PDE3 inhibitors

PDE3A and SLFN12 complex formation (PDE3A and SLFN12): weakly | Tm (° C.) (PDE3A(677-1141)): 56.6 ± 0.0 °C | ΔTm at 100 µM (PDE3A(677-1141)): 4.2 °C
Compound: O=C1CN2Cc3c(ccc(Cl)c3Cl)N=C2N1 [anagrelide, 6,7-dichloro-1,5-dihydroimidazo (2,1-b)quinazolin-2(3H)-one]

Compound: CN(C(=O)CCCOc1ccc2[nH]c(=O)ccc2c1)C1CCCCC1 [cilostamide]
rescue of DNMDP cytotoxicity / competition with DNMDP (HeLa cells [3]): able to rescue DNMDP cytotoxicity in a dose-dependent manner

Compound: O=C1CCc2cc(OCCCCc3nnnn3C3CCCCC3)ccc2N1 [cilostazol, 6-[4-(1-cyclohexyl-1H-tetrazol-5-yl)butoxy]-3,4-dihydro-2(1H)-quinolinone]
rescue of cell death induced by DNMDP, rank in bioactives screen (HeLa cells [3]): three most potent compounds

Compound: CC(C)C(=O)c1c(C(C)C)nn2ccccc12 [idubulast]
rescue of DNMDP cytotoxicity / competition with DNMDP (HeLa cells [3]): not effective competitors

Compound: Cc1[nH]c(=O)c(C#N)cc1-c1ccncc1 [milrinone, 2-methyl-6-oxo-1,6-dihydro-3,4′-bipyridine-5-carbonitrile]
rescue of cell death induced by DNMDP, rank in bioactives screen (HeLa cells [3]): three most potent compounds | rescue of DNMDP cytotoxicity / competition with DNMDP (HeLa cells [3]): able to rescue DNMDP cytotoxicity in a dose-dependent manner

Compound: CCCc1nn(C)c2c(=O)[nH]c(-c3cc(S(=O)(=O)N4CCN(C)CC4)ccc3OCC)nc12 [sildenafil, 1-[4-ethoxy-3-(6,7-dihydro-1-methyl-7-oxo-3-propyl-1H-pyrazolo[4,3-d]pyrimidin-5-yl)phenylsulfonyl]-4-methylpiperazine]
rescue of DNMDP cytotoxicity / competition with DNMDP (HeLa cells [3]): not effective competitors

Compound: CCCc1nc(C)c2c(=O)[nH]c(-c3cc(S(=O)(=O)N4CCN(CC)CC4)ccc3OCC)nn12 [vardenafil, 4-[2-ethoxy-5-(4-ethylpiperazin-1-yl)sulfonyl-phenyl]-9-methyl-7-propyl-3,5,6,8-tetrazabicyclo[4.3.0]nona-3,7,9-trien-2-one]
rescue of DNMDP cytotoxicity / competition with DNMDP (HeLa cells [3]): not effective competitors
